Earlier results as cited in patent US10674726B2, “Composition” (Conopco, Inc., priority 2013, dated 2020).

Conditions: at neutral pH

Question: Which “Critical Micelle Concentration” value does the source give for CCCCCCCC(CC(=O)O)OC(=O)CC(CCCCCCC)OC1OC(C)C(O)C(O)C1OC1OC(C)C(O)C(O)C1O (centres unmarked) [dirhamnolipid, 3-[3-[4,5-dihydroxy-6-methyl-3-(3,4,5-trihydroxy-6-methyloxan-2-yl)oxyoxan-2-yl]oxydecanoyloxy]decanoic acid] here?
Answer: 30 mg/L

Question: Which “Critical Micelle Concentration” value does the source give for CCCCCCCC(CC(=O)O)OC(=O)CC(CCCCCCC)O[C@@H]1O[C@@H](C)[C@H](O)[C@@H](O)[C@H]1O (stereo partly drawn) [mono-rhamnolipid, 3-[3-[(2R,3R,4R,5R,6S)-3,4,5-trihydroxy-6-methyloxan-2-yl]oxydecanoyloxy]decanoic acid] here?
Answer: 20 mg/L
